Like-named read-outs stand apart in the source and are kept apart here.
Legend:
melanoma cell lines = experiment: Cell based assay, cell viability (CellTiter-Glo), melanoma cell lines; conditions: Homo sapiens; LOX-IMVI cell line
Experimental: (§1) Commercially available bladder cancer, prostate cancer, lung cancer, breast cancer, blood cancer, pancreatic cancer, colorectal cancer, brain cancer, neuroblastoma, melanoma, liver cancer, cervical carcinoma, ovarian cancer, renal cancer, and papilloma cell lines were each treated with trypsin-EDTA and cultured, followed by being seeded in each well of a 96 well plate. After 24 hours of treatment at constant temperature, the respective cells were treated with the candidate compound so that a final concentration became 0 to 2 μM. The treated cells were additionally cultured for 72 hours, and cell viability was measured by using an ATP detection method (CellTiter-Glo® Luminescent Cell Viability Assay, Promega).

[1] = tested on: ovarian cancer cell lines; experiment: Cell based assay, cell viability (CellTiter-Glo), ovarian cancer cell lines; conditions: Homo sapiens; OVCAR-3 cells
Experimental: as §1

[2] = tested on: colorectal cancer cell lines (e.g. DLD-1, HCT 116, SW620, HCT-15, HCT-8, RKO); experiment: Cell based assay, cell viability (CellTiter-Glo), colorectal cancer cell lines
Experimental: as §1

[3] = Homo sapiens, DLD-1, 72 hours treatment, read-out: IC50, colorectal cancer cell line DLD-1
[4] = Homo sapiens, HCT 116, 72 hours treatment, read-out: IC50, colorectal cancer cell line HCT 116
[5] = Homo sapiens, HCT-8, 72 hours treatment, read-out: IC50, colorectal cancer cell line HCT-8
[6] = Homo sapiens, HCT-15, 72 hours treatment, read-out: IC50, colorectal cancer cell line HCT-15
[7] = Homo sapiens, HT-29, 72 hours treatment, read-out: IC50, colorectal cancer cell line HT-29
[8] = Homo sapiens, LoVo, 72 hours treatment, read-out: IC50, colorectal cancer cell line LoVo
[9] = Homo sapiens, SW480, 72 hours treatment, read-out: IC50, colorectal cancer cell line SW480
[10] = Homo sapiens, SW-620, SW620, 72 hours treatment, read-out: IC50, colorectal cancer cell line SW620
[11] = RKO, 72 hours treatment, read-out: IC50, colorectal cancer cell line RKO

| IC50 (melanoma cell lines) | IC50 [1] | IC50 [2, 3] | IC50 [2, 4] | IC50 [2, 5] | IC50 [2, 6] | IC50 [2, 7] | IC50 [2, 8] | IC50 [2, 9] | IC50 [2, 10] | IC50 [2, 11] | SMILES |
| --- | --- | --- | --- | --- | --- | --- | --- | --- | --- | --- | --- |
| > 2000 nM | > 2000 nM | > 2000 nM | > 2000 nM | > 2000 nM | > 2000 nM | > 10000 nM | > 2000 nM | > 2000 nM | > 2000 nM | > 2000 nM | CC(=O)c1c(SC(C)C)[nH]c2c(Br)ccc(Cl)c2c1=O [Compound 24, 3-acetyl-8-bromo-5-chloro-2-(isopropylthio)quinolin-4(1H)-one] |
| > 2000 nM | > 2000 nM | > 2000 nM | > 2000 nM | > 2000 nM | > 2000 nM | > 10000 nM | > 2000 nM | > 2000 nM | > 2000 nM | > 2000 nM | CC(=O)c1c([S+]([O-])C(C)C)[nH]c2c(Br)ccc(Cl)c2c1=O (centres unmarked) [Compound 25, 3-acetyl-8-bromo-5-chloro-2-(isopropylsulfinyl)quinolin-4(1H)-one] |
| > 2000 nM | > 2000 nM | > 2000 nM | > 2000 nM | > 2000 nM | > 2000 nM | > 10000 nM | > 2000 nM | > 2000 nM | > 2000 nM | 1790 nM | CC(=O)c1c([S+]([O-])C(C)c2ccccc2)[nH]c2c(Br)ccc(Cl)c2c1=O (centres unmarked) [Compound 26, 3-acetyl-8-bromo-5-chloro-2-((1-phenylethyl)sulfinyl)quinolin-4(1H)-one] |
| > 2000 nM | > 2000 nM | > 2000 nM | > 2000 nM | > 2000 nM | > 2000 nM | > 10000 nM | > 2000 nM | > 2000 nM | > 2000 nM | > 2000 nM | CC(=O)c1c(SCc2cccc(C#N)c2)[nH]c2c(Br)ccc(Cl)c2c1=O [Compound 27, 3-(((3-acetyl-8-bromo-5-chloro-4-oxo-1,4-dihydroquinolin-2-yl)thio)methyl)benzonitrile] |
| 880 nM | 690 nM | 940 nM | 960 nM | 1300 nM | 1060 nM | > 10000 nM | 1900 nM | 1220 nM | 1090 nM | 1090 nM | CC(=O)c1c([S+]([O-])Cc2cccc(C#N)c2)[nH]c2c(Br)ccc(Cl)c2c1=O (centres unmarked) [Compound 28, 3-(((3-acetyl-8-bromo-5-chloro-4-oxo-1,4-dihydroquinolin-2-yl)sulfinyl)methyl)benzonitrile] |
| > 2000 nM | > 2000 nM | > 2000 nM | > 2000 nM | > 2000 nM | > 2000 nM | > 10000 nM | > 2000 nM | > 2000 nM | > 2000 nM | > 2000 nM | CC(=O)c1c(SCc2ccc(F)c(Cl)c2)[nH]c2c(Br)ccc(Cl)c2c1=O [Compound 30, 3-acetyl-8-bromo-5-chloro-2-((3-chloro-4-fluorobenzyl)thio)quinolin-4(1H)-one] |
| > 2000 nM | > 2000 nM | > 2000 nM | > 2000 nM | > 2000 nM | > 2000 nM | > 10000 nM | > 2000 nM | > 2000 nM | > 2000 nM | > 2000 nM | CC(=O)c1c(SCc2ccc([N+](=O)[O-])cc2)[nH]c2c(Br)ccc(Cl)c2c1=O [Compound 32, 3-acetyl-8-bromo-5-chloro-2-((4-nitrobenzyl)thio)quinolin-4(1H)-one] |
| > 2000 nM | > 2000 nM | > 2000 nM | > 2000 nM | > 2000 nM | > 2000 nM | > 10000 nM | > 2000 nM | > 2000 nM | > 2000 nM | > 2000 nM | CSc1c(C(C)=O)c(=O)c2c(Cl)ccc(Br)c2n1S(C)(=O)=O [Compound 35, 3-acetyl-8-bromo-5-chloro-1-(methylsulfonyl)-2-(methylthio)quinolin-4(1H)-one] |
| > 2000 nM | > 2000 nM | > 2000 nM | > 2000 nM | > 2000 nM | > 2000 nM | > 10000 nM | > 2000 nM | > 2000 nM | > 2000 nM | > 2000 nM | CC(=O)c1c([S+](C)[O-])n(S(=O)(=O)C(F)(F)F)c2c(Br)ccc(Cl)c2c1=O (centres unmarked) [Compound 36, 3-acetyl-8-bromo-5-chloro-2-(methylsulfinyl)-1-((trifluoromethyl)sulfonyl)quinolin-4(1H)-one] |
| > 2000 nM | > 2000 nM | > 2000 nM | > 2000 nM | > 2000 nM | > 2000 nM | > 10000 nM | > 2000 nM | > 2000 nM | > 2000 nM | > 2000 nM | CSc1c(C(C)=O)c(=O)c2c(Cl)ccc(Br)c2n1S(=O)(=O)c1ccc(Cl)cc1 [Compound 37, 3-acetyl-8-bromo-5-chloro-1-((4-chlorophenyl)sulfonyl)-2-(methylthio)quinolin-4(1H)-one] |
| > 2000 nM | > 2000 nM | > 2000 nM | > 2000 nM | > 2000 nM | > 2000 nM | > 10000 nM | > 2000 nM | > 2000 nM | > 2000 nM | > 2000 nM | CSc1c(C(C)=O)c(=O)c2c(Cl)ccc(Br)c2n1S(=O)(=O)c1ccc([N+](=O)[O-])cc1 [Compound 38, 3-acetyl-8-bromo-5-chloro-2-(methylthio)-1-((4-nitrophenyl)sulfonyl)quinolin-4(1H)-one] |
| > 2000 nM | > 2000 nM | > 2000 nM | > 2000 nM | > 2000 nM | > 2000 nM | > 10000 nM | > 2000 nM | > 2000 nM | > 2000 nM | > 2000 nM | CCS(=O)(=O)n1c([S+](C)[O-])c(C(C)=O)c(=O)c2c(Cl)ccc(Br)c21 (centres unmarked) [Compound 39, 3-acetyl-8-bromo-5-chloro-1-(ethylsulfonyl)-2-(methylsulfinyl)quinolin-4(1H)-one] |
| > 2000 nM | > 2000 nM | > 2000 nM | > 2000 nM | > 2000 nM | > 2000 nM | > 10000 nM | > 2000 nM | > 2000 nM | > 2000 nM | > 2000 nM | CSc1c(C(C)=O)c(=O)c2c(Cl)ccc(Br)c2n1S(=O)(=O)c1ccc(C(C)(C)C)cc1 [Compound 40, 3-acetyl-8-bromo-1-((4-(tert-butyl)phenyl)sulfonyl)-5-chloro-2-(methylthio)quinolin-4(1H)-one] |
| > 2000 nM | > 2000 nM | > 2000 nM | > 2000 nM | > 2000 nM | > 2000 nM | > 10000 nM | > 2000 nM | > 2000 nM | > 2000 nM | > 2000 nM | CC(=O)c1c(S(C)(=O)=O)n(S(=O)(=O)c2ccc(C(C)(C)C)cc2)c2c(Br)ccc(Cl)c2c1=O [Compound 41, 3-acetyl-8-bromo-1-((4-(tert-butyl)phenyl)sulfonyl)-5-chloro-2-(methylsulfonyl)quinolin-4(1H)-one] |
| > 2000 nM | > 2000 nM | 1960 nM | > 2000 nM | > 2000 nM | > 2000 nM | > 10000 nM | > 2000 nM | > 2000 nM | > 2000 nM | > 2000 nM | CC(=O)c1c([S+](C)[O-])n(S(=O)(=O)c2ccc(C(C)(C)C)cc2)c2c(Br)ccc(Cl)c2c1=O (centres unmarked) [Compound 42, 3-acetyl-8-bromo-1-((4-(tert-butyl)phenyl)sulfonyl)-5-chloro-2-(methylsulfinyl)quinolin-4(1H)-one] |
| > 2000 nM | > 2000 nM | > 2000 nM | > 2000 nM | > 2000 nM | > 2000 nM | > 10000 nM | > 2000 nM | > 2000 nM | > 2000 nM | > 2000 nM | CC(=O)c1c(SCc2cc(Cl)ccc2Cl)[nH]c2c(Br)ccc(Cl)c2c1=O [Compound 43, 3-acetyl-8-bromo-5-chloro-2-((2,5-dichlorobenzyl)thio)quinolin-4(1H)-one] |
| > 2000 nM | > 2000 nM | > 2000 nM | > 2000 nM | > 2000 nM | > 2000 nM | > 10000 nM | > 2000 nM | > 2000 nM | > 2000 nM | > 2000 nM | CC(=O)c1c(SCc2cc(F)cc(F)c2)[nH]c2c(Br)ccc(Cl)c2c1=O [Compound 45, 3-acetyl-8-bromo-5-chloro-2-((3,5-difluorobenzyl)thio)quinolin-4(1H)-one] |
| > 2000 nM | > 2000 nM | > 2000 nM | > 2000 nM | > 2000 nM | > 2000 nM | > 10000 nM | > 2000 nM | > 2000 nM | > 2000 nM | > 2000 nM | CC(=O)c1c(SCc2cccc(I)c2)[nH]c2c(Br)ccc(Cl)c2c1=O [Compound 47, 3-acetyl-8-bromo-5-chloro-2-((3-iodobenzyl)thio)quinolin-4(1H)-one] |
| > 2000 nM | > 2000 nM | 1600 nM | > 2000 nM | > 2000 nM | > 2000 nM | > 10000 nM | > 2000 nM | > 2000 nM | > 2000 nM | > 2000 nM | CC(=O)c1c([S+]([O-])Cc2cccc(I)c2)[nH]c2c(Br)ccc(Cl)c2c1=O (centres unmarked) [Compound 48, 3-acetyl-8-bromo-5-chloro-2-((3-iodobenzyl)sulfinyl)quinolin-4(1H)-one] |
| > 2000 nM | > 2000 nM | > 2000 nM | > 2000 nM | > 2000 nM | > 2000 nM | > 10000 nM | > 2000 nM | > 2000 nM | > 2000 nM | > 2000 nM | CC(=O)c1c(SCc2ccccc2)nc2c(Br)ccc(Cl)c2c1O [Compound 52, 1-(2-(benzylthio)-8-bromo-5-chloro-4-hydroxyquinolin-3-yl)ethan-1-one] |
| > 2000 nM | > 2000 nM | > 2000 nM | > 2000 nM | > 2000 nM | > 2000 nM | > 10000 nM | > 2000 nM | > 2000 nM | > 2000 nM | > 2000 nM | CC(=O)c1c(S(=O)(=O)Cc2ccccc2)nc2c(Br)ccc(Cl)c2c1O [Compound 54, 1-(2-(benzylsulfonyl)-8-bromo-5-chloro-4-hydroxyquinolin-3-yl)ethan-1-one] |

| SMILES | IC50 (melanoma cell lines) | IC50 [1] | IC50 [2, 3] | IC50 [2, 4] | IC50 [2, 5] | IC50 [2, 6] | IC50 [2, 7] | IC50 [2, 8] | IC50 [2, 9] | IC50 [2, 10] | IC50 [2, 11] |
| --- | --- | --- | --- | --- | --- | --- | --- | --- | --- | --- | --- |
| CC(=O)c1c([S+]([O-])Cc2ccccc2)nc2c(Br)ccc(Cl)c2c1O (centres unmarked) [Compound 53, 1-(2-(benzylsulfinyl)-8-bromo-5-chloro-4-hydroxyquinolin-3-yl)ethan-1-one] | > 2000 nM | > 2000 nM | > 2000 nM | > 2000 nM | > 2000 nM | > 2000 nM | > 10000 nM | > 2000 nM | > 2000 nM | > 2000 nM | > 2000 nM |
